Assay results taken from publication PMC11141866, “Pyrimidine depletion enhances targeted and immune therapy combinations in acute myeloid leukemia” (JCI Insight, 2024).
Values joined by “and” are separate entries in the source; they are usually repeats but may differ in a detail not shown here. Identical values can stand only once. Like-named read-outs stand apart in the source and are kept apart here.

Experiments:
THP-1 cells = test: E. coli phagocytosis assay; type: cell-based, human; settings: THP-1 treated 6 days
Protocol: The THP-1 AML cell line was treated for 6 days, then washed and cocultured with pHrodo Deep Red E. coli BioParticles (P35360, Invitrogen) per the manufacturer’s protocol. Ten-minute pretreatment with 10 μM of cytochalasin D (actin polymerization inhibitor) was used as a negative control for phagocytosis. After 90 minutes of incubation with E. coli, cells were washed and run on the Cytek Aurora spectral flow cytometer.

HSA = HSA (Homo sapiens, UniProt P02768); test: Protein binding, HSA; type: in vitro ADME; settings: 4% HSA
Source text: (§1) Supplement jciinsight-9-173646-s083.xlsx, sheet "Supplemental Table S.2." | column: HOSU-53

[1] = Mini-Ames Mutagenicity Test; settings: CHO-WBL cells with and without S9 activation (so in the source)
Source text: as §1

[2] = HOSU-53 plasma exposure in MOLM-13 tumor-bearing mice; type: in vivo, NCG mice; settings: per mouse; for AUC: NCG, mouse, plasma, po, read-out: HOSU-53 AUCall
Protocol: Male 8- to 12-week-old NCG mice were engrafted with 1 × 10^5 cells via tail vein i.v. injection. […] Figure 3B and Figure 4, A and B, share the same vehicle group. page 6: Plasma samples were obtained following appropriate dosing administration and saved in the -80°C freezer till the time of analysis. Analyses by LC-MS/MS followed sample extraction by protein precipitation and separation by Ultra Performance Liquid Chromatography (UPLC, Waters Corporation, MA, USA) using a C18 column, 1.7um, 2.1x50mm, Mobile Phase A: 5:95:0.1 (v:v:v) Acetonitrile:Water:Formic Acid, Mobile Phase B: 50:50:0.1 (v:v:v) Methanol:Acetonitrile:Formic Acid. MS/MS analyses were performed on an API-6500 (Absciex MA, USA) in positive mode using an electrospray source at 550°C. The internal standard was d4-AEA monitored at 352.2 and 66.0 m/z transitions and the target analyte, HOSU-53, was monitored at 416.5 and 331.1 m/z transitions. The assay was qualified between 10-5,000 ng/ml HOSU53 to be within ±20% for QCs above the LLOQ in this range and ±25% at the LLOQ. DHO concentration quantification in mouse plasma samples. Plasma samples were obtained following appropriate dosing administration and saved in the -80°C freezer till the time of analysis. Analyses by LC-MS/MS followed sample extraction by protein precipitation and separation by Ultra Performance Liquid Chromatography (UPLC, Waters Corporation, MA, USA) using a Phenomenex Aqua C18 100x4.6mm, 3uM, […], Mobile Phase A: 100:0.1 (v:v) Water:Formic Acid, Mobile Phase B: 100:0.1 (v:v) Methanol:Formic Acid. MS/MS analyses were performed on an API-4000 (Absciex MA, USA) in negative mode using an electrospray source at 550°C. The internal standard was labeled 13C14_L-Dihydroorotic Acid monitored at 161.3 and 117.1 m/z transitions and the target analyte, L-Dihydroorotic Acid (DHO), was monitored at 157.0 and 70.0 m/z transitions. The assay was qualified between 10.0-30,000 ng/ml DHO to be within ±20% for QCs above the LLOQ in this range and ±25% at the LLOQ.

[3] = test system: MOLM-13 disseminated CDX AML model; test: MOLM-13 CDX efficacy study correlated with PK/PD (survival); type: in vivo
Protocol: Male 8- to 12-week-old NCG mice were engrafted with 1 × 10^5 cells via tail vein i.v. injection. Four days after engraftment (day 1 of treatment), mice (n = 9–10/arm) were randomized to receive p.o. qd vehicle (40% HPβCD) or p.o. qd HOSU-53 at 4, 10, and 20 mg/kg or 30 mg/kg biwk till moribundity or end of study, day 73. An additional study was done for PK/PD correlation with the survival study where 9 mice per group were randomized to receive p.o. qd vehicle (40% HPβCD) or p.o. qd HOSU-53 at 4, 10, and 20 mg/kg or 30 mg/kg biwk till day 14. Mice were bled for plasma collection to analyze HOSU-53 and DHO concentrations 1 day after the first dose and on day 14 for cumulative plasma concentration analysis. Figure 3B and Figure 4, A and B, share the same vehicle group.

HSA, sequence (P02768 25-609): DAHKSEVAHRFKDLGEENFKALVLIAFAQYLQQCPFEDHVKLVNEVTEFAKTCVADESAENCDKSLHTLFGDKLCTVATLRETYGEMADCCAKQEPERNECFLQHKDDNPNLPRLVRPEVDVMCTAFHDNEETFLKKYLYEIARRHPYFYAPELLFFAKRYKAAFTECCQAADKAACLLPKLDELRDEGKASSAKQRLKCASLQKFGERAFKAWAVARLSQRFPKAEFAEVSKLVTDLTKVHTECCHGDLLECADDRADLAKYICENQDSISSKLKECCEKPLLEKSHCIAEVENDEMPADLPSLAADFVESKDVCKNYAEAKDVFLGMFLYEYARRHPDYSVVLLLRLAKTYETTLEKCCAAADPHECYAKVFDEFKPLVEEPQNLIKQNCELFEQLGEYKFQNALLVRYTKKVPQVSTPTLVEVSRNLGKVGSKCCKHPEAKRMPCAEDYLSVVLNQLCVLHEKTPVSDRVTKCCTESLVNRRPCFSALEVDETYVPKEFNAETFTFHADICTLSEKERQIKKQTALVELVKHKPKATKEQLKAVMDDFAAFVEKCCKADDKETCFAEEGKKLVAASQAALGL

With `CCCCOc1cccc(-c2ccc(-c3cc(C(=O)O)c4cc(F)ccc4n3)cc2)c1` [HOSU-53] the “phagocytosis of E. coli” value (THP-1 cells) was “enhanced ability to phagocytose E. coli”, the fraction unbound (HSA) was less than 0.01 and the “Mini-Ames Mutagenicity Test” value [1] was “Negative”. For the same compound, the “HOSU-53 AUCall” value ([2]; Day 1, 4 mpk PO, male mice, 4 mg/kg) was 915.984 µM·h and 1069.99 µM·h, the “HOSU-53 AUCall” value ([2]; Day 1, 10 mpk PO, male mice, 10 mg/kg) was 1989.31 µM·h and 1940.99 µM·h and the “HOSU-53 AUCall” value ([2]; Day 1, 20 mpk PO, male mice, 20 mg/kg) was 3244.97 µM·h and 3430.6 µM·h. For the same compound, the “HOSU-53 AUCall” value ([2]; Day 1, 30 mpk PO, male mice, 30 mg/kg) was 5214.04 µM·h and 4142.06 µM·h, the “HOSU-53 AUCall” value ([2]; Day 14, 4 mpk PO, male mice, 4 mg/kg) was 2230.22 µM·h and 2019.88 µM·h and the “HOSU-53 AUCall” value ([2]; Day 14, 10 mpk PO, male mice, 10 mg/kg) was 3666.3 µM·h and 3989.64 µM·h. The “HOSU-53 AUCall” value ([2]; Day 14, 20 mpk PO, male mice, 20 mg/kg) was 6180.8 µM·h and 5557.2 µM·h, the “HOSU-53 AUCall” value ([2]; Day 14, 30 mpk PO, male mice, 30 mg/kg) was 7551.75 µM·h and 6154.9 µM·h and the AUC ([2]; female, 10 mg/kg, Day 1, 10 mpk PO, female mice) was 2830 µM·h. The AUC ([2]; female, 10 mg/kg, Day 14, 10 mpk PO, female mice) was 3980 µM·h, the AUC ([2]; male, 4 mg/kg, Day 1, 4 mpk PO, male mice) was 780 µM·h and the AUC ([2]; male, 4 mg/kg, Day 14, 4 mpk PO, male mice) was 1930 µM·h. The AUC ([2]; male, 10 mg/kg, Day 1, 10 mpk PO, male mice) was 1890 µM·h, the AUC ([2]; male, 10 mg/kg, Day 14, 10 mpk PO, male mice) was 3860 µM·h and the AUC ([2]; male, 20 mg/kg, Day 1, 20 mpk PO, male mice) was 3670 µM·h. The AUC ([2]; male, 20 mg/kg, Day 14, 20 mpk PO, male mice) was 5090 µM·h, the AUC ([2]; male, 30 mg/kg, Day 1, 30 mpk PO, male mice) was 4470 µM·h and the AUC ([2]; male, 30 mg/kg, Day 14, 30 mpk PO, male mice) was 6660 µM·h. For the same compound, the median survival ([3]; 10 mg/kg daily p.o.) was 55 days, the tolerability ([3]; 20 mg/kg daily p.o.) was “intolerable in approximately half the mice” and the median survival ([3]; 30 mg/kg twice weekly p.o.) was 48 days. The tolerability ([3]; 30 mg/kg twice weekly p.o.) was “well tolerated”, the “Survival, day of study at event (per animal)” value (“Survival, day … (per animal)” below) ([3]; 4 mpk poqd) was 44 days and 46 days and 43 days and 45 days and 36 days and the “Survival, day … (per animal)” value ([3]; 10mpk poqd) was 55 days and 52 days and 47 days and 60 days and 59 days and 49 days and 63 days and 58 days. For the same compound, the “Survival, day … (per animal)” value ([3]; 20mpk poqd, flag 0 = censored) was ≥ 73 days and 69 days and 46 days and 41 days and 40 days and 71 days and 11 days and 31 days and the “Survival, day … (per animal)” value ([3]; 30mpk biwk) was 50 days and 43 days and 42 days and 48 days and 46 days and 52 days and 44 days and 49 days.
